In ChEMBL document CHEMBL1142847, “New orally active spiro 1,2,4-trioxanes with high antimalarial potency” (2005):

How the values were obtained:
Type in all cases: functional
[1] = tested on: Rattus norvegicus; assay: Number of Swiss mice (Mus musculus) alive in a batch of 5 infected with multidrug-resistant Plasmodium yoelii, on day 28 after peroral administration of 96 mg/kg/day dose; conditions: route oral
[2] = Number of Swiss mice (Mus musculus) alive in a batch of 5 infected with multidrug-resistant Plasmodium yoelii, on day 28 after intramuscular administration of 96 mg/kg/day dose
[3] = tested on: Rattus norvegicus; assay: Number of Swiss mice (Mus musculus) alive in a batch of 5 infected with multidrug-resistant Plasmodium yoelii, on day 28 after peroral administration of 48 mg/kg/day dose; conditions: route oral
[4] = tested on: Rattus norvegicus; assay: Number of Swiss mice (Mus musculus) alive in a batch of 5 infected with multidrug-resistant Plasmodium yoelii, on day 28 after oral administration of 24 mg/kg/day dose

SMILES: C=C(c1ccccc1)C1COC2(CCC(C)(O)CC2)OO1 (stereo not drawn)
- Activity [1]: 0
- Activity [2]: 2

SMILES: C=C(c1ccc(-c2ccccc2)cc1)C1COC2(CCC(O)(CC(=O)OCC)CC2)OO1 (stereo in doubt; form 1)
- Activity [1]: 0
- Activity [2]: 0

SMILES: C=C(c1ccccc1)C1COC2(CCC(OC(=O)CCC(=O)O)CC2)OO1 (stereo not drawn)
- Activity [1]: 0
- Activity [2]: 0

SMILES: C=C(c1ccccc1)C1COC2(CCC(=CC(=O)OCC)CC2)OO1 (stereo not drawn)
- Activity [3]: 5
- Activity [1]: 5
- Activity [2]: 2
- Activity [4]: 0

SMILES: C=C(c1ccccc1)C1COC2(CCC(O)CC2)OO1 (stereo not drawn)
- Activity [1]: 0
- Activity [2]: 0

SMILES: C=C(c1ccc(-c2ccccc2)cc1)C1COC2(CCC(=CC(=O)OCC)CC2)OO1 (stereo not drawn)
- Activity [3]: 0
- Activity [1]: 5
- Activity [2]: 0

SMILES: C=C(c1ccc(-c2ccccc2)cc1)C1COC2(CCC(OC(=O)CCC(=O)O)CC2)OO1 (stereo not drawn)
- Activity [1]: 0
- Activity [2]: 0

SMILES: C=C(c1ccccc1)C1COC2(CCC(=C(C)C(=O)OCC)CC2)OO1 (stereo not drawn)
- Activity [1]: 0
- Activity [2]: 0

SMILES: C=C(c1ccc(-c2ccccc2)cc1)C1COC2(CCC(=C(C)C(=O)OCC)CC2)OO1 (stereo not drawn)
- Activity [3]: 0
- Activity [1]: 2
- Activity [2]: 0

SMILES: C=C(c1ccccc1)C1COC2(CCC(O)(c3ccccc3)CC2)OO1 (stereo not drawn)
- Activity [1]: 0
- Activity [2]: 0

SMILES: C=C(c1ccccc1)C1COC2(CCC(O)(CC(=O)OCC)CC2)OO1 (stereo in doubt; form 1)
- Activity [1]: 0
- Activity [2]: 0

SMILES: C=C(c1ccc(-c2ccccc2)cc1)C1COC2(CCC(O)CC2)OO1 (stereo not drawn)
- Activity [1]: 0
- Activity [2]: 2
